The results in this text go back to patent publication US9416144B2, “Benzoxazine oxazolidinone compound, preparation method and application thereof” (priority 2012, dated 2016).

≈ marks a conversion by molar mass, not a printed value.

One data set has as its system Enterococcus (6 strains). The data set is described as follows: In vitro antibacterial activity, MIC by agar double dilution method. It is filed as cell-based. To be noted: clinical isolates, 35° C. 16 hrs. The method in brief: (§1)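 Clinical isolates from the Nanjing region, spotted at about 10^6 CFU/mL onto MIT agar containing drug at 64 down to 0.031 μg/mL in 2-fold steps. Plates incubated 16 hrs at 35° C.; MIC is the lowest concentration with no growth.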

Data set [1] relates to Staphylococcus aureus resistant strains (6 strains). The description is as above. It is filed as cell-based. The note with it: clinical isolates. The procedure, abridged:
as §1

Data set [2] relates to Staphylococcus aureus sensitive strains (5 strains). The description is as above. The format is cell-based. The note with it: clinical isolates. The method in brief:
as §1

For data set [3], the system named is Staphylococcus epidermidis resistant strains (5 strains). The description is as above. The format is cell-based. The note with it: clinical isolates. The procedure, abridged:
as §1

For data set [4], the system named is Staphylococcus epidermidis sensitive strains (5 strains). The description is as above. It is filed as cell-based. The note with it: clinical isolates. The procedure, abridged:
as §1

The test system of data set [5] is Streptococcus pneumoniae resistant strains (4 strains). The description is as above. The format is cell-based. The note with it: clinical isolates. The method in brief:
as §1

The subject of data set [6] is LREFA, linezolid-resistant strain of Enterococcus faecium (3 strains). The data set is described as follows: In vitro antibacterial activity on linezolid-resistant strains, MIC in MHB broth, 96-well plate. The format is cell-based. The note with it: LREFA (3 strains). Here is the method:
(§2) The stock solution of the subject drugs in DMSO was 10 mg/mL. MHA (agar) and MHB (broth) were both prepared according to the manufacturer's requirements.
(§3) Double dilution of drugs: under aseptic operation, 12.8 μL of liquid drug was added into the first well of a 96-well plate, and then added 27.2 μL DMSO and mixed. The 2nd to 12nd wells were all added 20 μL DMSO. 20 μL was taken from the first well to the second well and mixed up. 20 μL was taken from the second well to the third well, which was repeated till the 11st well, from which was taken 20 μL and discarded. The 12nd well only had 20 μL of DMSO as the growth control. Then 180 μL of sterile water was added to each well and mixed up. The drug used as control was prepared by the same method.
(§4) The solutions with different concentrations of antibacterial drugs after the double dilution and DMSO were added into a sterile 96-well plate separately, 10 μL per well, ready for use.
(§5) Single colonies were picked from the MHA plates into 5 ml of sterile saline and mixed up.
(§6) Light transmittance was adjusted to 80% with a spectrophotometer. After being diluted by 1:200 with MHB, 90 μL of such bacteria liquid was added into each of the wells which already had 10 μL of the drug liquid, mixed up, and incubated in a regular biochemical incubator at 35° C. for 20 hrs before the results were read out. At this time, the drug concentration in the 1st to 12nd wells was 32, 16, 8, 4, 2, 1, 0.5, 0.25, 0.125, 0.0625, 0.03125, 0 μg/mL, respectively.
(§7) Two parallel groups were set up for the same diluted concentration of a drug.
(§8) 4) Results Reading and Judgment: Refer to the Standard Recommended by the CLSI, 2010 Edition.
(§9) The positive control group was LZ (linezolid, brand name Zyvox, approved by the FDA in 2000 to be firstly sold in the United States, which is the first and also the only one of oxazolidinone antibacterial drugs allowed to enter clinical application).

Data set [7] deals with LREFL, linezolid-resistant strain of Enterococcus faecalis (3 strains). The data set is described as above. It is filed as cell-based. To be noted: LREFL (3 strains). As for the experimental part: as §2, §3, §4, §5, §6, §7, §8, §9
Data set [8] deals with LRSA, linezolid-resistant strain of Staphylococcus aureus (3 strains). The data set is described as above. The format is cell-based. The note with it: LRSA (3 strains). As for the experimental part: as §2, §3, §4, §5, §6, §7, §8, §9
In data set [9] the test system is LRSE, linezolid-resistant strain of Staphylococcus epidermidis (1 strain). The description is as above. The format is cell-based. The note with it: LRSE (1 strain). Here is the method:
as §2, §3, §4, §5, §6, §7, §8, §9

Data set [10] deals with S.a. ATCC 29213 (standard strain of Staphylococcus aureus). The description is as above. It is filed as cell-based. To be noted: ATCC29213, 35° C. 20 hrs. As for the experimental part:
as §2, §3, §4, §5, §6, §7, §8, §9

By MIC is commonly meant the lowest concentration that inhibits growth of the organism. Low readings indicate greater potency, high ones weaker potency. As a reminder, the melting point is the temperature of the solid-liquid transition. Take `C[C@@H](O)C(=O)c1ccc(-c2ccc3c(c2)OC[C@H]2[C@H](CO)OC(=O)N32)cn1` [Compound 1, (3R,3aS)-3-(hydroxylmethyl)-7-(6-((R)-2-hydroxylpropionyl)pyridin-3-yl)-3a,4-dihydrobenzo[b]oxazolo[3,4-d][1,4]oxazin-1(3H)-one]: the melting point is 164 to 166 °C. The compound also came in with an MIC against Enterococcus (6 strains) of 1 µg/mL (≈ 2.7 µM). This compound also showed an MIC in [1] of 0.125 to 0.5 µg/mL (≈ 0.338 to 1.35 µM). In addition, the MIC in data set [2] came to 0.25 µg/mL (≈ 0.675 µM). This compound showed an MIC in [3] of 0.125 to 0.5 µg/mL (≈ 0.338 to 1.35 µM). This compound gave an MIC in data set [4] of 0.125 to 0.5 µg/mL (≈ 0.338 to 1.35 µM). For the same compound, the MIC in data set [5] was 0.25 to 0.5 µg/mL (≈ 0.675 to 1.35 µM). The MIC in [6] lay in the range of 4 to 8 µg/mL (≈ 10.8 to 21.6 µM). Moreover, in [7], the MIC was 8 µg/mL (≈ 21.6 µM). In addition, the MIC in [8] turned out to be 8 µg/mL (≈ 21.6 µM). This compound also yielded an MIC in data set [9] of 4 µg/mL (≈ 10.8 µM). The compound also yielded an MIC in data set [10] of 0.5 µg/mL (≈ 1.35 µM).
In the case of `O=C1O[C@@H](CO)[C@@H]2COc3cc(-c4ccc(Cn5cncn5)nc4)ccc3N12` [Compound 2, (3R,3aS)-7-(6-((1H-1,2,4-triazol-1-yl)methyl)pyridin-3-yl)-3-(hydroxylmethyl)-3a,4-dihydrobenzo[b]oxazolo[3,4-d][1,4]oxazin-1(3H)-one], the MIC against Enterococcus (6 strains) lay within 1 to 2 µg/mL (≈ 2.64 to 5.27 µM); in data set [1], 0.5 to 1 µg/mL (≈ 1.32 to 2.64 µM); in data set [2] it was 0.5 to 1 µg/mL (≈ 1.32 to 2.64 µM); in data set [3], 0.5 to 1 µg/mL (≈ 1.32 to 2.64 µM); in data set [4], 0.5 to 1 µg/mL (≈ 1.32 to 2.64 µM); in data set [5] it was 0.5 to 2 µg/mL (≈ 1.32 to 5.27 µM). Moreover, the MIC in [6] is 4 to 8 µg/mL (≈ 10.5 to 21.1 µM); in data set [7] it was 4 to 8 µg/mL (≈ 10.5 to 21.1 µM); in data set [8], 8 µg/mL (≈ 21.1 µM); in data set [9], 4 µg/mL (≈ 10.5 µM); in [10] it was 0.5 µg/mL (≈ 1.32 µM).
With `N#Cc1ccc(-c2ccc3c(c2)OC[C@H]2[C@H](CO)OC(=O)N32)cn1` [Compound 3, 5-((3R,3aS)-3-(hydroxylmethyl)-1-oxo-1,3,3a,4-tetrahydrobenzo[b]oxazolo[3,4-d][1,4]oxazin-7-yl)picolinonitrile], the MIC in the data set on Enterococcus (6 strains) was 1 µg/mL (≈ 3.09 µM); in data set [1] it was 0.125 to 0.25 µg/mL (≈ 0.387 to 0.773 µM); in [2], 0.25 to 0.5 µg/mL (≈ 0.773 to 1.55 µM); in data set [3], 0.125 to 0.25 µg/mL (≈ 0.387 to 0.773 µM); in data set [4], 0.25 µg/mL (≈ 0.773 µM); in data set [5], 0.25 to 0.5 µg/mL (≈ 0.773 to 1.55 µM). Besides, the MIC in data set [6] was 2 to 4 µg/mL (≈ 6.19 to 12.4 µM); in [7], 4 µg/mL (≈ 12.4 µM); in data set [8] it was 4 to 8 µg/mL (≈ 12.4 to 24.7 µM); in [9], 4 µg/mL (≈ 12.4 µM); in data set [10], 0.25 µg/mL (≈ 0.773 µM).
Take `O=C1OCCN1c1ccc(-c2ccc3c(c2)OC[C@H]2[C@H](CO)OC(=O)N32)cn1` [Compound 5, (3R,3aS)-3-(hydroxylmethyl)-7-(6-(2-oxazolidino-3-yl)pyridin-3-yl)-3a,4-dihydrobenzo[b]oxazolo[3,4-d][1,4]oxazin-1(3H)-one]: the minimum inhibitory concentration (MIC) in the data set on Enterococcus (6 strains) is 1 µg/mL (≈ 2.61 µM); in data set [1] it was 0.5 to 1 µg/mL (≈ 1.3 to 2.61 µM); in [2], 0.5 to 1 µg/mL (≈ 1.3 to 2.61 µM); in data set [3], 0.5 to 1 µg/mL (≈ 1.3 to 2.61 µM); in data set [4], 0.5 to 1 µg/mL (≈ 1.3 to 2.61 µM); in data set [5], 0.5 to 1 µg/mL (≈ 1.3 to 2.61 µM). Further, the MIC was 4 to 8 µg/mL (≈ 10.4 to 20.9 µM) in [6]; 4 to 8 µg/mL (≈ 10.4 to 20.9 µM) in data set [7]; 4 µg/mL (≈ 10.4 µM) in data set [8]; 2 µg/mL (≈ 5.22 µM) in data set [9]; 0.5 µg/mL (≈ 1.3 µM) in [10].
As for `C[C@@H](O)C(O)c1ccc(-c2ccc3c(c2)OC[C@H]2[C@H](CO)OC(=O)N32)cn1` (stereo partly drawn) [Compound 18, (3R,3aS)-7-(6-((2R)-1,2-dihydroxylpropyl)pyridin-3-yl)-3-(hydroxylmethyl)-3a,4-dihydrobenzo[b]oxazolo[3,4-d][1,4]oxazin-1(3H)-one], the MIC against Enterococcus (6 strains) is 4 to 8 µg/mL (≈ 10.7 to 21.5 µM); in data set [1] it was 2 µg/mL (≈ 5.37 µM); in data set [2], 2 to 4 µg/mL (≈ 5.37 to 10.7 µM); in data set [3], 1 to 2 µg/mL (≈ 2.69 to 5.37 µM); in [4], 1 to 2 µg/mL (≈ 2.69 to 5.37 µM); in [5] it was 2 to 4 µg/mL (≈ 5.37 to 10.7 µM). The MIC in data set [6] was 2 to 4 µg/mL (≈ 5.37 to 10.7 µM); in data set [7], 2 to 4 µg/mL (≈ 5.37 to 10.7 µM); in data set [8], 4 µg/mL (≈ 10.7 µM); in [9] it was 4 µg/mL (≈ 10.7 µM); in data set [10], 0.5 µg/mL (≈ 1.34 µM).
On to `CN1CCC[C@H]2CN(c3ccc(-c4ccc5c(c4)OC[C@H]4[C@H](CO)OC(=O)N54)cn3)C[C@H]21` [Compound 23, (3R,3aS)-3-(hydroxylmethyl)-7-(6-((4aS,7aS)-1-methylhexaydro-1H-pyrrolo[3,4-b]pyridin-6(2H)-yl)pyridin-3-yl)-3a,4-dihydrobenzo[b]oxazolo[3,4-d][1,4]oxazin-1(3H)-one], for which the melting point fell in the range of 169 to 171 °C. In the data set on Enterococcus (6 strains), this compound returned an MIC of 16 µg/mL (≈ 36.7 µM). Further, the MIC in data set [1] worked out at 8 µg/mL (≈ 18.3 µM). The compound further showed an MIC in data set [2] of 8 µg/mL (≈ 18.3 µM). In addition, the MIC in [3] is 8 to 16 µg/mL (≈ 18.3 to 36.7 µM). Besides, in data set [4], the MIC lay within 4 to 8 µg/mL (≈ 9.16 to 18.3 µM). This compound also came in with an MIC in data set [5] of 16 µg/mL (≈ 36.7 µM).
Turning to `O=C1O[C@@H](CO)[C@@H]2COc3cc(-c4ccc(N5C[C@@H]6CCCN[C@@H]6C5)nc4)ccc3N12` [Compound 32, (3R,3aS)-7-(6-((4aS,7aS)-hexahydro-1H-pyrrolo[3,4-b]pyridin-6(2H)-yl)pyridin-3-yl)-3-(hydroxylmethyl)-3a,4-dihydrobenzo[b]oxazolo[3,4-d][1,4]oxazin-1(3H)-one], the melting point is 210 to 212 °C. For the same compound, the MIC in the data set with Enterococcus (6 strains) amounted to 16 µg/mL (≈ 37.9 µM). Besides, the MIC in data set [1] came out at 8 µg/mL (≈ 18.9 µM). The MIC in [2] lay in the range of 4 to 8 µg/mL (≈ 9.47 to 18.9 µM). In [3], the MIC was 4 to 8 µg/mL (≈ 9.47 to 18.9 µM). In addition, in data set [4], the MIC is 4 to 8 µg/mL (≈ 9.47 to 18.9 µM). The MIC in data set [5] lay in the range of 8 to 16 µg/mL (≈ 18.9 to 37.9 µM).
The compound `N#Cc1ccc(-c2ccc3c(c2)OC[C@H]2[C@H](COC(=O)CCC(=O)O)OC(=O)N32)cn1` [Compound 34, 4-(((3R,3aS)-7-(6-cyanopyridin-3-yl)-1-oxo-1,3,3a,4-tetrahydrobenzo[b]oxazolo[3,4-d][1,4]oxazin-3-yl)methoxyl)-4-oxobutyric acid] had a melting point of 313 to 315 °C. This compound yielded an MIC in data set [6] of 4 µg/mL (≈ 9.45 µM). The same compound yielded an MIC in data set [7] of 4 µg/mL (≈ 9.45 µM). Also, the MIC in [8] stood at 8 µg/mL (≈ 18.9 µM). For the same compound, in [9], the MIC amounted to 4 µg/mL (≈ 9.45 µM). In data set [10], the MIC was determined as 0.5 µg/mL (≈ 1.18 µM).
